Results as given in patent US8455497B2, “Inhibitors of aspartyl protease” (Vertex Pharmaceuticals Incorporated, priority 1999, dated 2013).
Read-outs that look alike come from different tables or passages of the source.

Columns and labels:
HIV-1 (strain IIIB) = assay: Antiviral activity assay in MT4 cells (propidium iodide based); format: cell-based; conditions: Human immunodeficiency virus 1, IIIB; wild type HIV-1 virus, MT4 cells; read-out: Wildtype virus - IC50
Method in brief: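 Compound serial dilutions in RPMI/FCS received MT4 cells pre-infected 1 hr at 37°C with HIV-1 IIIB at 100×TCID50. After 5 days' culture and Nonidet-40 lysis, well DNA content was measured by propidium iodide dye; mock-infected cells served as control.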

[1] = system: D545701-14 multi protease inhibitor resistant virus; assay: Anti-viral activity against resistant virus D545701-14 in MT4 cells; format: cell-based, HIV-1
[2] = system: EP13 multi protease inhibitor resistant virus; assay: Anti-viral activity against resistant virus EP13 in MT4 cells; format: cell-based, HIV-1
Method in brief: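 MT4 cells infected for 1 h at 37 °C, MOI 100×TCID50, then diluted 6-fold onto pre-diluted compound and cultured 5 days (5% CO2). Viable-cell DNA content estimated by propidium iodide. EP13 carries protease mutations M46I, L63P, A71V, V82F/L, I84V, no RT mutations.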

[3] = Human immunodeficiency virus 1, MT4, read-out: D545701-14 mutant - IC50, D545701-14 multi protease inhibitor resistant virus, MT4 cells
[4] = Human immunodeficiency virus 1, MT4, read-out: EP13 mutant IC50, EP13 multi protease inhibitor resistant virus, MT4 cells

Row | SMILES | IC50 (HIV-1 (strain IIIB)) [nM] | IC50 [1, 3] [nM] | IC50 [2, 4] [nM] | IC50 ([1]; Human immunodeficiency virus 1, MT4, read-out: D545701-14 mutant - IC50) [nM] | IC50 ([2]; Human immunodeficiency virus 1, MT4, read-out: EP13 mutant IC50) [nM]
1 | CC(C)CN(C[C@@H](O)[C@H](Cc1ccc(OCCc2ccccc2)cc1)NC(=O)O[C@H]1CO[C@H]2OCC[C@H]21)S(=O)(=O)c1ccc2c(c1)OCO2 [Compound 202, (3R,3aS,6aR)hexahydrofuro[2,3-b]furan-3-yl (1S,2R)-3-[(1,3-benzodioxol-5-ylsulfonyl)(isobutyl)amino]-2-hydroxy-1-[4-(phenethyloxy)benzyl]propylcarbamate] | < 1 | 1 to 10 | < 1 |  | 
2 | CC(C)CN(C[C@@H](O)[C@H](Cc1ccc(OCC(F)(F)F)cc1)NC(=O)O[C@H]1CO[C@H]2OCC[C@H]21)S(=O)(=O)c1ccc2c(c1)OCO2 [Compound 304, (3R,3aS,6aR)-hexahydrofuro[2,3-b]furan-3-yl (1S,2R)-3-[(1,3-benzodioxol-5-ylsulfonyl)(isobutyl)amino]-2-hydroxy-1-[4-(2,2,2-trifluoroethoxy)benzyl]propylcarbamate] | 1 to 10 | 1 to 10 | 1 to 10 |  | 
3 | CC(C)CN(C[C@@H](O)[C@H](Cc1ccc(OCc2ccccc2CS(=O)(=O)c2ccccc2)cc1)NC(=O)O[C@H]1CO[C@H]2OCC[C@H]21)S(=O)(=O)c1ccc2c(c1)OCO2 [Compound 388, (3R,3aS,6aR)-hexahydrofuro[2,3-b]furan-3-yl (1S,2R)-3-[(1,3-benzodioxol-5-ylsulfonyl)(isobutyl)amino]-2-hydroxy-1-[4-{(2-[(phenylsulfonyl)methyl]benzyl}oxy)benzyl]propylcarbamate] | 1 to 10 | 1 to 10 | 1 to 10 |  | 
4 | CC(C)CN(C[C@@H](O)[C@H](Cc1ccc(OCc2ccccc2C#N)cc1)NC(=O)O[C@H]1CO[C@H]2OCC[C@H]21)S(=O)(=O)c1ccc2c(c1)OCO2 [Compound 382, (3R,3aS,6aR)-hexahydrofuro[2,3-b]furan-3-yl (1S,2R)-3-[(1,3-benzodioxol-5-ylsulfonyl)(isobutyl)amino]-1-{4-[(2-cyanobenzyl)oxy]benzyl}-2-hydroxypropylcarbamate] | 1 to 10 | 1 to 10 | 1 to 10 |  | 
5 | CC(C)CN(C[C@@H](O)[C@H](Cc1ccc(OCCCCN(C)C)cc1)NC(=O)O[C@H]1CO[C@H]2OCC[C@H]21)S(=O)(=O)c1ccc2c(c1)OCO2 [Compound 275, (3R,3aS,6aR)-hexahydrofuro[2,3-b]furan-3-yl (1S,2R)-3-[(1,3-benzodioxol-5-ylsulfonyl)(isobutyl)amino]-1-{4-[4-(dimethylamino)butoxy]benzyl}-2-hydroxypropylcarbamate] | 10 to 100 | 10 to 100 | 1 to 10 |  | 
6 | CNC(=O)OCCOc1ccc(C[C@H](NC(=O)O[C@H]2CO[C@H]3OCC[C@H]32)[C@H](O)CN(CC(C)C)S(=O)(=O)c2ccc3c(c2)OCO3)cc1 [Compound 323, (3R,3aS,6aR)-Hexahydrofuro[2,3-b]furan-3-yl (1S,2R)-3-[(1,3-benzodioxol-5-ylsulfonyl)(isobutyl)amino]-2-hydroxy-1-[4-(2-{[(methylamino)carbonyl]oxy}ethoxy)benzyl]propylcarbamate] | 1 to 10 | 1 to 10 | 1 to 10 |  | 
7 | CC(=O)NCCOc1ccc(C[C@H](NC(=O)O[C@H]2CO[C@H]3OCC[C@H]32)[C@H](O)CN(CC(C)C)S(=O)(=O)c2ccc3c(c2)OCO3)cc1 [Compound 355, (3R,3aS,6aR)hexahydrofuro[2,3-b]furan-3-yl (1S,2R)-3-[(1,3-benzodioxol-5-ylsulfonyl)(isobutyl)amino]-2-hydroxy-1-[4-(2-[acetylamino]ethoxy)benzyl]propylcarbamate] | 10 to 100 | 10 to 100 | 10 to 100 |  | 
8 | CNC(=O)OCCCOc1ccc(C[C@H](NC(=O)O[C@H]2CO[C@H]3OCC[C@H]32)[C@H](O)CN(CC(C)C)S(=O)(=O)c2ccc3c(c2)OCO3)cc1 [Compound 320, (3R,3aS,6aR)-Hexahydrofuro[2,3-b]furan-3-yl (1S,2R)-3[(1,3-benzodioxol-5-ylsulfonyl)(isobutyl)amino]-2-hydroxy-1-[4-(3-{[(methylamino)carbonyl]oxy}propoxy)benzyl]propylcarbamate] | 1 to 10 | 1 to 10 | 1 to 10 |  | 
9 | CC(C)CN(C[C@@H](O)[C@H](Cc1ccc(OCC#N)cc1)NC(=O)O[C@H]1CO[C@H]2OCC[C@H]21)S(=O)(=O)c1ccc2c(c1)OCO2 [Compound 393, (3R,3aS,6aR)-hexahydrofuro[2,3-b]furan-3-yl (1S,2R)-3-[(1,3-benzodioxol-5-ylsulfonyl)(isobutyl)amino]-1-[4-(cyanomethoxy)benzyl]-2-hydroxypropylcarbamate] | 10 to 100 | 10 to 100 | 10 to 100 |  | 
10 | CC(C)CN(C[C@@H](O)[C@H](Cc1ccc(OCCCn2cccn2)cc1)NC(=O)O[C@H]1CO[C@H]2OCC[C@H]21)S(=O)(=O)c1ccc2c(c1)OCO2 [Compound 284, (3R,3aS,6aR)-hexahydrofuro[2,3-b]furan-3-yl (1S,2R)-3-[(1,3-benzodioxol-5-ylsulfonyl)(isobutyl)amino]-2-hydroxy-1-{4-[3-(1H-pyrazol-1-yl)propoxy]benzyl}propylcarbamate] | 1 to 10 | 1 to 10 | 1 to 10 |  | 
11 | CNC(=O)CCCOc1ccc(C[C@H](NC(=O)OC2CO[C@H]3OCC[C@@H]23)[C@H](O)CN(CC(C)C)S(=O)(=O)c2ccc3c(c2)OCO3)cc1 (stereo in doubt) [Compound 286, (3R,3aS,6aR)-hexahydrofuro[2,3-b]furan-3-yl (1S,2R)-3-[(1,3-benzodioxol-5-ylsulfonyl)(isobutyl)amino]-2-hydroxy-1-{4-[4-(methylamino)-4-oxobutoxy]benzyl}propylcarbamate] | 10 to 100 | 1 to 10 | 1 to 10 |  | 
12 | COC(=O)NCCOc1ccc(C[C@H](NC(=O)O[C@H]2CO[C@H]3OCC[C@H]32)[C@H](O)CN(CC(C)C)S(=O)(=O)c2ccc3c(c2)OCO3)cc1 [Compound 356, (3R,3aS,6aR)hexahydrofuro[2,3-b]furan-3-yl (1S,2R)-3-[(1,3-benzodioxol-5-ylsulfonyl)(isobutyl)amino]-2-hydroxy-1-[4-(2-[(methoxycarbonyl)amino]ethoxy)benzyl]propylcarbamate] | 1 to 10 |  |  | < 1 | 1 to 10
13 | Cc1noc(C)c1COc1ccc(C[C@H](NC(=O)O[C@H]2CO[C@H]3OCC[C@H]32)[C@H](O)CN(CC(C)C)S(=O)(=O)c2ccc3c(c2)OCO3)cc1 [Compound 385, (3R,3aS,6aR)-hexahydrofuro[2,3-b]furan-3-yl (1S,2R)-3-[(1,3-benzodioxol-5-ylsulfonyl)(isobutyl)amino]-1-{4-[(3,5-dimethyl-4-isoxazolyl)methoxy]benzyl}-2-hydroxypropylcarbamate] | 1 to 10 | 10 to 100 | 1 to 10 |  | 
14 | COc1ccc(-c2nc(COc3ccc(C[C@H](NC(=O)O[C@H]4CO[C@H]5OCC[C@H]54)[C@H](O)CN(CC(C)C)S(=O)(=O)c4ccc5c(c4)OCO5)cc3)no2)cc1 [Compound 391, (3R,3aS,6aR)-hexahydrofuro[2,3-b]furan-3-yl (1S,2R)-3-[(1,3-benzodioxol-5-ylsulfonyl)(isobutyl)amino]-2-hydroxy-1-(4-{[5-(4-methoxyphenyl)-1,2,4-oxadiazol-3-yl]methoxy}benzyl)propylcarbamate] | 1 to 10 | 1 to 10 | 1 to 10 |  | 
15 | CC(C)CN(C[C@@H](O)[C@H](Cc1ccc(OCCCNC(=O)OC(C)(C)C)cc1)NC(=O)O[C@H]1CO[C@H]2OCC[C@H]21)S(=O)(=O)c1ccc2c(c1)OCO2 [Compound 221, (3R,3aS,6aR)-hexahydrofuro[2,3-b]furan-3-yl (1S,2R)-3-[(1,3-benzodioxol-5-ylsulfonyl)(isobutyl)amino]-1-(4-{3-[(tert-butoxycarbonyl)amino]propoxy}benzyl)-2-hydroxypropylcarbamate] | 1 to 10 | 1 to 10 | 1 to 10 |  | 
16 | CC(C)CN(C[C@@H](O)[C@H](Cc1ccc(OCCCNc2cc[nH]n2)cc1)NC(=O)OC1CO[C@H]2OCC[C@@H]12)S(=O)(=O)c1ccc2c(c1)OCO2 (stereo in doubt) [Compound 281, (3R,3aS,6aR)-hexahydrofuro[2,3-b]furan-3-yl (1S,2R)-3-[(1,3-benzodioxol-5-ylsulfonyl)(isobutyl)amino]-2-hydroxy-1-{4-[3-(1H-pyrazol-3-ylamino)propoxy]benzyl}propylcarbamate] | 1 to 10 | 1 to 10 | 1 to 10 |  | 
17 | Cc1cc(S(=O)(=O)N(CC(C)C)C[C@@H](O)[C@H](Cc2ccc(OCc3ccccn3)cc2)NC(=O)O[C@H]2CO[C@H]3OCC[C@H]32)ccc1O [Compound 295] | 1 to 10 | 1 to 10 | 1 to 10 |  | 
18 | CC(C)CN(C[C@@H](O)[C@H](Cc1ccc(OCCCN(C)C)cc1)NC(=O)O[C@H]1CO[C@H]2OCC[C@H]21)S(=O)(=O)c1ccc2c(c1)OCO2 [Compound 274, (3R,3aS,6aR)-hexahydrofuro[2,3-b]furan-3-yl (1S,2R)-3-[(1,3-benzodioxol-5-ylsulfonyl)(isobutyl)amino]-1-{4-[3-(dimethylamino)propoxy]benzyl}-2-hydroxypropylcarbamate] | 10 to 100 | 10 to 100 | 1 to 10 |  | 
